Experimental findings from patent publication US6583309B1 (University of Medicine and Dentistry of New Jersey, priority 1999, dated 2003) are described below.

For this experiment, the target named is TAR RNA. The experiment in a line: In vitro binding of resin-bound compounds to TAR RNA (OD260 of unbound RNA). Details: species or system HIV. The settings on record: in vitro assay; compounds of formula I on TentaGel beads incubated with TAR RNA overnight at 4° C. in TK buffer; read-out: Kd (nM), binding constants. As to the method: Binding of compounds of formula I and V to TAR RNA was measured by evaluating their inhibition of TAR-TAT complex formation in the presence of increasing levels of the compound to be tested. The compounds of formula I were tested in an in vitro assay; the compounds of formula V were tested in an in vivo assay.
The TAR RNA used corresponds to the minimal sequence required for TAT responsiveness in vivo. This 29-residue oligonucleotide has the sequence: 5′-[…]-3′ (SEQ ID NO.: 1). TAR RNA was prepared by in vitro transcription. A “top strand” single-stranded DNA oligomer having the sequence 5′-TAATACGACTCACTATAG-3′ (SEQ ID NO.: 2) was annealed to a “bottom strand” single-stranded DNA template having the following sequence: 3′-[…]-5′ (SEQ ID NO.: 3), thereby generating a double-stranded region corresponding to a promoter sequence recognized by T7 RNA polymerase. Transcription was carried out in transcription buffer (40 mM Tris-HCl, pH 8.1, 1 mM spermidine, 0.01% Triton®X-100, 5 mM dithiothreitol, 4 mM each of ATP, GTP, CTP, and UTP at 37° C. for 4 to 5 hours. Reactions were performed in a volume of 0.02 ml containing 8 pmole of template (top strand annealed to bottom strand) and 40 to 60 units of T7 RNA polymerase. Transcription was terminated by adding an equal volume of loading buffer (9M urea, 1 mmol EDTA, 0.1M bromophenol blue in 1XTBE buffer; TBE is 45 mmol trisborate at pH 8). Product RNA was purified by electrophoresis through a denaturing 20% polyacrylamide gel containing 8M urea. RNA was extracted from the gel, precipitated, dissolved in dithylpyrocarbonate-treated water, and stored at −20° C. until used.
In vitro assay conditions: Compounds AA-DU were synthesized on TentaGel S—NH2 (4.6 mmole). All Fmoc-amino acids were purchased from Bachem (Torrance, Calif.). 1-hydroxybenzotriazole (HOBT) and diisopropylcarbodiimide (DIPCDI) were obtained from Aldrich Chemical Co., Milwalkee, Wis. Piperidine and trifluoroacetic acid were purchased from Applied Biosystems Division, Perkin-Elmer. Compounds AA-DU were synthesized manually according to standard solid-phase peptide synthesis protocols. Coupling efficiencies of residues at each step were monitored by Kaiser test. Deprotection of trimer peptides was carried out in 10% water in trifluoroacetic acid (1 mL) for 16 hours at room temperature. After filtration of solvents, the resin was washed with water (1 mL×4), DMF (1 mL×4), dichloromethane (1 mL×4), and dried under reduced pressure. The compounds attached to the resin (10 beads) were placed in an Eppendorf tube and washed with TK buffer ([…]). The beads were suspended in TK buffer ([…]) and incubated with TAR RNA ([…]) overnight at 4° C. The suspension was centrifuged and the supernatant containing unbound RNA was transferred to a cuvette for OD260 measurements. The UV absorbance was measured by a Shimadzu UV-1601 spectrometer. Equilibrium concentrations of RNA were determined from these measurements. Given that the initial concentrations of ligand and RNA are known, and assuming simple bimolecular receptor/substrate binding, dissociation constant (KD) was calculated from straightforward equations.

With `NCCCCCNCC(=O)N[C@@H](CCCCN)COC(=O)N[C@@H](CCCCN)COC(N)=O` [Compound CN, Carbamic acid 6-amino-2-{6-amino-2-[2-(5-amino-pentylamino)-acetylamino]-hexyloxycarbonylamino}-hexyl ester], the Kd came to 235 nM.
On to `NCCCCNCC(=O)N(CCCCN)CC(=O)N[C@H](CCCCN)COC(N)=O` [Compound AY, Carbamic acid 6-amino-2-(2-{(4-amino-butyl)-[2-(4-amino-butylamino)-acetyl]-amino}-acetylamino)-hexyl ester], for which the dissociation constant Kd stood at 403 nM.
As for `NCCCCCCCN(CC(=O)N[C@@H](CCCCN)COC(N)=O)C(=O)CNCCCCN` [Compound DQ, Carbamic acid 6-amino-2-{2-[[2-(4-amino-butylamino)-acetyl]-(7-amino-heptyl)-amino]-acetylamino}-hexyl ester], the figure is 6140 nM; as for `NCCCC[C@@H](N)COC(=O)N[C@@H](CCCCN)COC(=O)N[C@H](CCCCN)COC(N)=O` [Compound AK, Carbamic acid 6-amino-2-[6-amino-2-(2,6-diamino-hexyloxycarbonylamino)-hexyloxycarbonylamino]-hexyl ester], 1720 nM; as for `N=C(N)NCCC[C@H](N)COC(=O)N(CCCCCCCN)CC(=O)N[C@H](CCCCN)COC(N)=O` [Compound BR, Carbamic acid 6-amino-2-{2-[(2-amino-5-guanidino-pentyloxycarbonyl)-(7-amino-heptyl)-amino]-acetylamino}-hexyl ester], 5590 nM.
As for `NCCCCCN(CC(=O)N[C@H](CCCCN)COC(N)=O)C(=O)OC[C@H](N)CCCCN` (stereo in doubt) [Compound BC, Carbamic acid 6-amino-2-{2-[(5-amino-pentyl)-(2,6-diamino-hexyloxycarbonyl)-amino]-acetylamino}-hexyl ester], the figure is 183 nM.
Next, `NCCCCCN(CC(=O)N[C@@H](CCCCN)COC(N)=O)C(=O)[C@@H](N)CCCCN` [Compound DD, Carbamic acid 6-amino-2-{2-[(5-amino-pentyl)-(2,6-diamino-hexanoyl)-amino]-acetylamino}-hexyl ester]: 567 nM; `NCCCC[C@@H](N)COC(=O)N[C@H](CCCCN)COC(=O)N[C@@H](CCCCN)COC(N)=O` [Compound CB, Carbamic acid 6-amino-2-[6-amino-2-(2,6-diamino-hexyloxycarbonylamino)-hexyloxycarbonylamino]-hexyl ester]: 603 nM.
Take `NCCCC[C@H](N)COC(=O)N[C@H](CCCCN)COC(=O)N[C@H](CCCCN)COC(N)=O` [Compound AA, Carbamic acid 6-amino-2-[6-amino-2-(2,6-diamino-hexyloxycarbonylamino)-hexyloxycarbonylamino]-hexyl ester]: the Kd came out at 639 nM.
Next, `NCCCC[C@H](COC(N)=O)NC(=O)CN(CCCCN)C(=O)[C@@H](N)CCCCN` [Compound AU, Carbamic acid 6-amino-2-{2-[(4-amino-butyl)-(2,6-diamino-hexanoyl)-amino]-acetylamino}-hexyl ester]: 147 nM; `NCCCC[C@@H](COC(N)=O)NC(=O)OC[C@@H](CCCCN)NC(=O)[C@@H](N)CCCCN` [Compound CC, Carbamic acid 6-amino-2-[6-amino-2-(2,6-diamino-hexanoylamino)-hexyloxycarbonylamino]-hexyl ester]: 567 nM.
As to `NCCCC[C@@H](COC(N)=O)NC(=O)OC[C@H](CCCCN)NC(=O)OC[C@H](N)CCC(N)=O` [Compound CR, Carbamic acid 6-amino-2-[6-amino-2-(2-amino-4-carbamoyl-butoxycarbonylamino)-hexyloxycarbonylamino]-hexyl ester], the Kd worked out at 981 nM.
As for `NCCCC[C@H](N)COC(=O)N[C@@H](CCCCN)COC(=O)N[C@H](CCCCN)COC(N)=O` [Compound AJ, Carbamic acid 6-amino-2-[6-amino-2-(2,6-diamino-hexyloxycarbonylamino)-hexyloxycarbonylamino]-hexyl ester], the figure is 4310 nM; as for `NCCCCCCCNCC(=O)N(CCCCCN)CC(=O)N[C@H](CCCCN)COC(N)=O` [Compound BG, Carbamic acid 6-amino-2-{2-[[2-(7-amino-heptylamino)-acetyl]-(5-amino-pentyl)-amino]-acetylamino}-hexyl ester], 431 nM; as for `NCCCCCN(CC(=O)N[C@@H](CCCCN)COC(N)=O)C(=O)CNCCCCN` [Compound DH, Carbamic acid 6-amino-2-{2-[[2-(4-amino-butylamino)-acetyl]-(5-amino-pentyl)-amino]-acetylamino}-hexyl ester], 7690 nM.
As for `NCCCC[C@H](COC(N)=O)NC(=O)OC[C@H](CCCCN)NC(=O)OC[C@H](N)CCC(N)=O` [Compound AR, Carbamic acid 6-amino-2-[6-amino-2-(2-amino-4-carbamoyl-butoxycarbonylamino)-hexyloxycarbonylamino]-hexyl ester], the figure is 376 nM.
As for `NCCCCCNCC(=O)N(CCCCCN)CC(=O)N[C@H](CCCCN)COC(N)=O` [Compound BF, Carbamic acid 6-amino-2-(2-{(5-amino-pentyl)-[2-(5-amino-pentylamino)-acetyl]-amino}-acetylamino)-hexyl ester], the figure is 147 nM; as for `NCCCCCCCN(CC(=O)N[C@H](CCCCN)COC(N)=O)C(=O)OC[C@H](N)CCC(N)=O` [Compound BS, Carbamic acid 6-amino-2-{2-[(2-amino-4-carbamoyl-butoxycarbonyl)-(7-amino-heptyl)-amino]-acetylamino}-hexyl ester], 639 nM.
`NCCCC[C@@H](COC(N)=O)NC(=O)OC[C@@H](CCCCN)NC(=O)[C@H](N)CCCCN` (stereo in doubt) [Compound CD, Carbamic acid 6-amino-2-[6-amino-2-(2,6-diamino-hexanoylamino)-hexyloxycarbonylamino]-hexyl ester]: the Kd was determined as 567 nM.
Turning to `NCCCCCCCN(CC(=O)N[C@H](CCCCN)COC(N)=O)C(=O)OC[C@@H](N)CCCCN` [Compound BK, Carbamic acid 6-amino-2-{2-[(7-amino-heptyl)-(2,6-diamino-hexyloxycarbonyl)-amino]-acetylamino}-hexyl ester], the Kd amounted to 930 nM.
As for `NCCCCNCC(=O)N[C@@H](CCCCN)C(=O)N[C@H](CCCCN)COC(N)=O` [Compound BZ, Carbamic acid 6-amino-2-{6-amino-2-[2-(4-amino-butylamino)-acetylamino]-hexanoylamino}-hexyl ester], the figure is 130 nM; as for `NCCCCCNCC(=O)N[C@H](CCCCN)COC(=O)N[C@H](CCCCN)COC(N)=O` [Compound AE, Carbamic acid 6-amino-2-{6-amino-2-[2-(5-amino-pentylamino)-acetylamino]-hexyloxycarbonylamino}-hexyl ester], 1110 nM; as for `NCCCC[C@H](COC(N)=O)NC(=O)OC[C@@H](CCCCN)NC(=O)OC[C@H](N)CCC(N)=O` [Compound AI, Carbamic acid 6-amino-2-[6-amino-2-(2-amino-4-carbamoyl-butoxycarbonylamino)-hexyloxycarbonylamino]-hexyl ester], 603 nM.
As for `NCCCC[C@@H](N)COC(=O)N(CCCCN)CC(=O)N[C@H](CCCCN)COC(N)=O` [Compound AT, Carbamic acid 6-amino-2-{2-[(4-amino-butyl)-(2,6-diamino-hexyloxycarbonyl)-amino]-acetylamino}-hexyl ester], the figure is 165 nM.
